Results as given in PubChem BioAssay AID248 (DTP/NCI, 2004).
Where “and” joins values, the source holds several entries; their conditions need not be identical. Equal entries are not always repeated. Toxic doses and inconclusive results are not listed. No stated cut-off is given here; in the data, active means T/C of 150% or more; inactive means T/C below 125%.

Tested on: L1210 leukemia ip in BDF1 mice, survival T/C
Test: NCI In Vivo Anticancer Drug Screen. Data for tumor model L1210 Leukemia (intraperitoneal) in B6D2F1 (BDF1) mice
Conditions: endpoint: mean survival time, higher = longer survival
Method in brief: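 Transplantable tumor model; survival measured in treated vs vehicle control mice. Value = treated/control.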

[1] = dose: 100.0 mg/kg/injection, schedule: Q01DX001 (ip), vehicle: Klucel (hydroxypropylcellulose) (HPC)
[2] = dose: 100.0 mg/kg/injection, schedule: Q01DX009 (ip), vehicle: Klucel (hydroxypropylcellulose) (HPC)
[3] = dose: 200.0 mg/kg/injection, schedule: Q01DX001 (ip), vehicle: Klucel (hydroxypropylcellulose) (HPC)
[4] = dose: 200.0 mg/kg/injection, schedule: Q01DX009 (ip), vehicle: Klucel (hydroxypropylcellulose) (HPC)
[5] = dose: 100.0 mg/kg/injection, schedule: Q04DX002 (ip), vehicle: Klucel (hydroxypropylcellulose) (HPC)
[6] = dose: 200.0 mg/kg/injection, schedule: Q04DX002 (ip), vehicle: Klucel (hydroxypropylcellulose) (HPC)
[7] = dose: 100.0 mg/kg/injection, schedule: Q04DX003 (ip), vehicle: Klucel (hydroxypropylcellulose) (HPC)
[8] = dose: 200.0 mg/kg/injection, schedule: Q04DX003 (ip), vehicle: Klucel (hydroxypropylcellulose) (HPC)
[9] = dose: 400.0 mg/kg/injection, schedule: Q01DX009 (ip), vehicle: Klucel (hydroxypropylcellulose) (HPC)
[10] = dose: 400.0 mg/kg/injection, schedule: Q04DX003 (ip), vehicle: Klucel (hydroxypropylcellulose) (HPC)
[11] = dose: 100.0 mg/kg/injection, schedule: Q04DX003 (ip), vehicle: saline with Tween-80
[12] = dose: 200.0 mg/kg/injection, schedule: Q04DX003 (ip), vehicle: saline with Tween-80
[13] = dose: 400.0 mg/kg/injection, schedule: Q04DX003 (ip), vehicle: saline with Tween-80
[14] = dose: 100.0 mg/kg/injection, schedule: Q01DX009 (ip), vehicle: saline with Tween-80
[15] = dose: 200.0 mg/kg/injection, schedule: Q01DX009 (ip), vehicle: saline with Tween-80
[16] = dose: 100.0 mg/kg/injection, schedule: Q04DX003 (ip), vehicle: saline
[17] = dose: 200.0 mg/kg/injection, schedule: Q04DX003 (ip), vehicle: saline

Measured: T/C

O=C(/C=C(\Cl)c1ccc2c(c1)OCO2)OC/C=C\c1ccc2c(c1)OCO2
inactive: dose: 50.0 mg/kg/injection, schedule: Q01DX009 (ip), vehicle: Klucel (hydroxypropylcellulose) (HPC) 94 % of control | [1] 93 % of control | [2] 92 % of control | [3] 88 % of control | [4] 92 % of control

O=C(CCCC(=O)N/N=C/c1cccc(Cl)c1)N/N=C\c1cccc(Cl)c1
inactive: dose: 50.0 mg/kg/injection, schedule: Q01DX001 (ip), vehicle: other 90 % of control | dose: 100.0 mg/kg/injection, schedule: Q01DX001 (ip), vehicle: other 93 % of control | dose: 400.0 mg/kg/injection, schedule: Q01DX001 (ip), vehicle: other 88 % of control

CN(Cc1ccccc1)N=Nc1ccccc1
inactive: dose: 50.0 mg/kg/injection, schedule: Q04DX002 (ip), vehicle: Klucel (hydroxypropylcellulose) (HPC) 103 % of control | [5] 95 % of control | [6] 116 % of control

NC(=O)Nc1ccccc1O
inactive: dose: 75.0 mg/kg/injection, schedule: Q04DX002 (ip), vehicle: saline with Tween-80 102 % of control | dose: 150.0 mg/kg/injection, schedule: Q04DX002 (ip), vehicle: saline with Tween-80 87 % of control | dose: 300.0 mg/kg/injection, schedule: Q04DX002 (ip), vehicle: saline with Tween-80 97 % of control

CC(=O)N1CCC(CC2CCCCC2)CC1
inactive: dose: 12.5 mg/kg/injection, schedule: Q04DX003 (ip), vehicle: saline 97 % of control | dose: 25.0 mg/kg/injection, schedule: Q04DX003 (ip), vehicle: saline 100 % of control | dose: 50.0 mg/kg/injection, schedule: Q04DX003 (ip), vehicle: saline 100 % of control

CCC(=O)Oc1ccc(OCc2ccccc2)cc1
inactive: [2] 95 % of control | [7] 95 % of control | [4] 97 % of control | [8] 98 % of control | [9] 98 % of control | [10] 95 % of control

CC(=O)c1cccc(NC(=O)Oc2ccc(Cl)cc2Cc2ccccc2)c1
inactive: [2] 101 % of control | [4] 101 % of control | [9] 95 % of control

CS(=O)(=O)OCC1OC(c2ccccc2)OC(C(CBr)OS(C)(=O)=O)C1OS(C)(=O)=O (stereo unspecified)
inactive: [5] 97 % of control | [6] 93 % of control | dose: 400.0 mg/kg/injection, schedule: Q04DX002 (ip), vehicle: Klucel (hydroxypropylcellulose) (HPC) 93 % of control

COc1cc([N+](=O)[O-])ccc1N
inactive: dose: 100.0 mg/kg/injection, schedule: Q01DX009 (ip), vehicle: saline sonified 116 % of control | [11] 105 % of control | dose: 200.0 mg/kg/injection, schedule: Q01DX009 (ip), vehicle: saline sonified 95 % of control | [12] 105 % of control | dose: 400.0 mg/kg/injection, schedule: Q01DX009 (ip), vehicle: saline sonified 104 % of control | [13] 115 % of control

CC(C)(SCCc1ccccn1)C(N)C(=O)O (stereo unspecified)
inactive: [1] 102 % of control | [3] 107 % of control | dose: 400.0 mg/kg/injection, schedule: Q01DX001 (ip), vehicle: Klucel (hydroxypropylcellulose) (HPC) 96 % of control

Cc1c2cnccc2c(C)c2c1c1ccccc1n2CCCN1C(=O)c2ccccc2C1=O
inactive: dose: 50.0 mg/kg/injection, schedule: Q04DX003 (ip), vehicle: saline with Tween-80 100 % of control | [14] 104 % of control | [11] 97 % of control | dose: 150.0 mg/kg/injection, schedule: Q01DX001 (oral), vehicle: saline with Tween-80 105 % of control | [15] 102 % of control and 107 % of control | [12] 101 % of control | dose: 300.0 mg/kg/injection, schedule: Q01DX001 (oral), vehicle: saline with Tween-80 112 % of control | dose: 400.0 mg/kg/injection, schedule: Q01DX009 (ip), vehicle: saline with Tween-80 111 % of control and 120 % of control | [13] 117 % of control | dose: 600.0 mg/kg/injection, schedule: Q01DX001 (oral), vehicle: saline with Tween-80 112 % of control | dose: 600.0 mg/kg/injection, schedule: Q01DX009 (ip), vehicle: saline with Tween-80 121 % of control | dose: 1200.0 mg/kg/injection, schedule: Q01DX001 (oral), vehicle: saline with Tween-80 121 % of control

COc1cc(Cl)c(/C=C2\N=C(c3ccccc3)OC2=O)cc1OC
inactive: dose: 50.0 mg/kg/injection, schedule: Q01DX001 (ip), vehicle: saline 94 % of control | dose: 100.0 mg/kg/injection, schedule: Q01DX001 (ip), vehicle: saline 91 % of control | dose: 200.0 mg/kg/injection, schedule: Q01DX001 (ip), vehicle: saline 97 % of control | dose: 400.0 mg/kg/injection, schedule: Q01DX001 (ip), vehicle: saline 94 % of control

COc1ccc2nc(N=Nc3c(N)nc(N)[nH]c3=O)sc2c1
inactive: dose: 50.0 mg/kg/injection, schedule: Q04DX003 (ip), vehicle: Klucel (hydroxypropylcellulose) (HPC) 102 % of control | dose: 100.0 mg/kg/injection, schedule: Q01DX001 (ip), vehicle: carboxymethylcellulose (CMC) 106 % of control | [7] 104 % of control | dose: 200.0 mg/kg/injection, schedule: Q01DX001 (ip), vehicle: carboxymethylcellulose (CMC) 106 % of control | [8] 101 % of control | dose: 400.0 mg/kg/injection, schedule: Q01DX001 (ip), vehicle: carboxymethylcellulose (CMC) 101 % of control

COC(=O)C[P+](c1ccccc1)(c1ccccc1)c1ccccc1
inactive: dose: 15.0 mg/kg/injection, schedule: Q01DX001 (ip), vehicle: saline 93 % of control | dose: 30.0 mg/kg/injection, schedule: Q01DX001 (ip), vehicle: saline 89 % of control | dose: 60.0 mg/kg/injection, schedule: Q01DX001 (ip), vehicle: saline 86 % of control

O=C(Nc1cccc(C(F)(F)F)c1)Nc1cccc2c1C(=O)c1ccccc1C2=O
inactive: [14] 88 % of control | [15] 87 % of control

O=C1c2ccccc2C(=O)c2c(Nc3ccc(CCO)cc3)ccc(O)c21
inactive: [2] 103 % of control | [7] 102 % of control | [4] 97 % of control | [8] 100 % of control | [9] 101 % of control | [10] 102 % of control

C[n+]1ccccc1C(=O)O (tested in a mixture with another compound)
inactive: [16] 101 % of control | [17] 98 % of control

c1ccc(C2=C(c3ccccc3)SC(c3ccccc3)=C(c3ccccc3)S2)cc1
inactive: [16] 102 % of control | [17] 98 % of control | dose: 400.0 mg/kg/injection, schedule: Q04DX003 (ip), vehicle: saline 104 % of control
